From patent US20020061836A1, “Methods for altering SXR activation using peptide mimetic HIV protease inhibitor SXR ligands” (priority 2000, published 2002)

How the values were obtained:
FXR = target: T1, FXR (Homo sapiens, UniProt Q96RI1); test: Nuclear receptor specificity transfection assay; assay type: cell-based; conditions: 10 μM paclitaxel
T1 construct: expressed in transfected cells; host or cells: CV-1

[1] = test system: thyroid hormone receptor β (TRβ); conditions: 10 μM paclitaxel
[2] = test system: LS180 human colon cancer cells; test: [14C]-paclitaxel efflux from pretreated LS180 cells; assay type: cell-based; conditions: LS180 cells induced 48 hours with 10 μM paclitaxel, 10 μM docetaxel or 100 nM LG268
Method: Taxane-induced drug efflux was measured using pretreated LS180 human colon cancer cells. The rate of drug efflux was measured. […] Individual data points are the means of triplicate determinations, error bars represent standard deviation and the lines are lines of regression. The slope of each line (rate of efflux) was compared to the slope obtained in the control (untreated) cells using an analysis of covariance. […] The entire experiment was performed three times with similar results. […] The cells were then incubated in media supplemented with 10 μM [^14C]-paclitaxel (4.9 μCi/umol, Moravek Biochemicals, Brea, Calif.) for 15 minutes. The uptake of ^14C-paclitaxel reached maximum levels at 10-12 minutes (data not shown). After 15 minutes, the cells were then rapidly centrifuged through silicone oil to remove all traces of extracellular radioactivity, resuspended in fresh media, and cell counts determined. At multiple time points over the next 10 minutes, triplicate aliquots of the cell suspension (approx. 1×10^5 cells/aliquot) were again centrifuged through silicon oil and the radioactivity in the cell pellet measured by quench-corrected liquid scintillation counting. The rate of [^14C]-paclitaxel efflux was determined as the slope of the [^14C]-paclitaxel versus time plots using all data. The slope for each inducer was compared to the slope obtained in the control (untreated) cells using an analysis of covariance.

[3] = target: T2, human RXRα ligand binding domain (Homo sapiens, UniProt P19793); test: Gal-L-RXR Gal4 reporter transient transfection assay in CV-1 cells; assay type: cell-based; conditions: 10 μM paclitaxel
T2 construct: expressed in transfected cells; host or cells: CV-1
T2 sequence (P19793 203-462): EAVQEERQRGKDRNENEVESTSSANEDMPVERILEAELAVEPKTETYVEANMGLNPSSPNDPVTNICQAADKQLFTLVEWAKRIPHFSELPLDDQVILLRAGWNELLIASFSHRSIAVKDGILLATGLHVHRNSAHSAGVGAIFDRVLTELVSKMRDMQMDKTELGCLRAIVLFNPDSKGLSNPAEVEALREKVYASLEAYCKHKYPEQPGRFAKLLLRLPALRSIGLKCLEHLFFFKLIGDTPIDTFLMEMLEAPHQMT
Description: The Gal4 reporter activity was normalized to the internal β-galactosidase control and the data plotted as fold activation relative to untreated cells. All transfections contained the Gal4 reporter and a β-galactosidase expression vector as an internal control.

P-glycoprotein = P-glycoprotein (Mus musculus, UniProt P21447); conditions: orally administered; cited from earlier work
P-glycoprotein, sequence (P21447 whole entry): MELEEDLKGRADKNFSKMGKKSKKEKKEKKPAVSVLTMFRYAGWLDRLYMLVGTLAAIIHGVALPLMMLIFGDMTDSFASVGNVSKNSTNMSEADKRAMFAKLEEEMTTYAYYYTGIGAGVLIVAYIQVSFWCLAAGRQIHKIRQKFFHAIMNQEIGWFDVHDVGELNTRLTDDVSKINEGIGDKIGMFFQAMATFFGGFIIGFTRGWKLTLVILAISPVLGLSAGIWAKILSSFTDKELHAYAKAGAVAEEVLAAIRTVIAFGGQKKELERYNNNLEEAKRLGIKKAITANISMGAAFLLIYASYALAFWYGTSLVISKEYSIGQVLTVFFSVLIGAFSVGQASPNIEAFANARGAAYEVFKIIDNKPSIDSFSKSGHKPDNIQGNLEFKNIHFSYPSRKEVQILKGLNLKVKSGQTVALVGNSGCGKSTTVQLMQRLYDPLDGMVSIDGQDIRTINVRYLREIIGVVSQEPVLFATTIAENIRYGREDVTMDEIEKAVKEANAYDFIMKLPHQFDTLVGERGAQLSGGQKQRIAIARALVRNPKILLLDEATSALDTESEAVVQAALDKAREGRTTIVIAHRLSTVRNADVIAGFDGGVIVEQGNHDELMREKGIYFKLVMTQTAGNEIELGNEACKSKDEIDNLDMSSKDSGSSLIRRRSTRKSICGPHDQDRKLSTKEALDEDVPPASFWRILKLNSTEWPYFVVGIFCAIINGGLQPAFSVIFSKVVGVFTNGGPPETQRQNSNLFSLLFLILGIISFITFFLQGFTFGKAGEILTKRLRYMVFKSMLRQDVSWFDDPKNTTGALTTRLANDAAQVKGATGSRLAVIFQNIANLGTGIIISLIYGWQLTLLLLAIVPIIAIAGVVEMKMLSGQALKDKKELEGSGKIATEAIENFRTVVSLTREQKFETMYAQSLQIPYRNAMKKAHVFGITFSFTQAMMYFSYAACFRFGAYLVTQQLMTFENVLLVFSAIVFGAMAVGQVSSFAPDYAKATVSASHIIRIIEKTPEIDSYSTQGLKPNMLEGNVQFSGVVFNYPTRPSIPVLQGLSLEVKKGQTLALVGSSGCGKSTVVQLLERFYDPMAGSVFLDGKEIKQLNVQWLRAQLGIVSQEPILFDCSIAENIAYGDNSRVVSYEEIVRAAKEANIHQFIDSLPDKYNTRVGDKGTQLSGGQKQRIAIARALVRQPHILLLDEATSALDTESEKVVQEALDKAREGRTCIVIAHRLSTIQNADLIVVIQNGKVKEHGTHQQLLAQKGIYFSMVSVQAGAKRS

human LXRα = target: T3, human LXRα (Homo sapiens, UniProt Q13133); test: Nuclear receptor specificity transfection assay; assay type: cell-based; conditions: 10 μM paclitaxel
T3 construct: expressed in transfected cells; host or cells: CV-1
T3 sequence (Q13133 1-447): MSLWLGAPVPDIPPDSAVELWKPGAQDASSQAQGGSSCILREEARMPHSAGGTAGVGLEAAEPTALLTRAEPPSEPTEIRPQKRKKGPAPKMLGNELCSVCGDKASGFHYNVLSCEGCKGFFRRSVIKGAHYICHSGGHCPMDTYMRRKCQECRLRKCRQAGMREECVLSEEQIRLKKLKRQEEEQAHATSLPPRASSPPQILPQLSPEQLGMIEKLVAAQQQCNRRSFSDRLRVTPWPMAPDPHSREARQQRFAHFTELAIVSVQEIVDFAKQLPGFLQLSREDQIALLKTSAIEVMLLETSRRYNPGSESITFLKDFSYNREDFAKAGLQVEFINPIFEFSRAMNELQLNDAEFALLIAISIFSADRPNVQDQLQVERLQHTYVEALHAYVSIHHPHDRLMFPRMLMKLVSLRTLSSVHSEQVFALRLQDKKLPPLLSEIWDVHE

human RARα = target: T4, human RARα (Homo sapiens, UniProt P10276); test: Nuclear receptor specificity transfection assay; assay type: cell-based; conditions: 10 μM paclitaxel
T4 construct: expressed in transfected cells; host or cells: CV-1
T4 sequence (P10276 whole entry): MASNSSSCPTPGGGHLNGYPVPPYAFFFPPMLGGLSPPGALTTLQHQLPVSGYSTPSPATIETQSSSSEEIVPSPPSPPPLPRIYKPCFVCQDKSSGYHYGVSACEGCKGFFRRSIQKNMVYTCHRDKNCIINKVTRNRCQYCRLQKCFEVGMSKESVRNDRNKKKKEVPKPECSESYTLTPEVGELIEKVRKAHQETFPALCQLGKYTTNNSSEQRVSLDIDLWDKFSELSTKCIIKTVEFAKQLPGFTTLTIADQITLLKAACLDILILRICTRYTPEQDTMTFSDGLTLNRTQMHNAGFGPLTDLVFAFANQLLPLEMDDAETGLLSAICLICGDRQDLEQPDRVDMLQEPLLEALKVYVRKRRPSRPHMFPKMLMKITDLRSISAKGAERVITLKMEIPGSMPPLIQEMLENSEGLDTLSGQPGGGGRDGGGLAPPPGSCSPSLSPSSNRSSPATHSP

mouse PPARδ = target: T5, mouse PPARδ (Mus musculus, UniProt P35396); test: Nuclear receptor specificity transfection assay; assay type: cell-based; conditions: 10 μM paclitaxel
T5 construct: expressed in transfected cells; host or cells: CV-1
T5 sequence (P35396 1-440): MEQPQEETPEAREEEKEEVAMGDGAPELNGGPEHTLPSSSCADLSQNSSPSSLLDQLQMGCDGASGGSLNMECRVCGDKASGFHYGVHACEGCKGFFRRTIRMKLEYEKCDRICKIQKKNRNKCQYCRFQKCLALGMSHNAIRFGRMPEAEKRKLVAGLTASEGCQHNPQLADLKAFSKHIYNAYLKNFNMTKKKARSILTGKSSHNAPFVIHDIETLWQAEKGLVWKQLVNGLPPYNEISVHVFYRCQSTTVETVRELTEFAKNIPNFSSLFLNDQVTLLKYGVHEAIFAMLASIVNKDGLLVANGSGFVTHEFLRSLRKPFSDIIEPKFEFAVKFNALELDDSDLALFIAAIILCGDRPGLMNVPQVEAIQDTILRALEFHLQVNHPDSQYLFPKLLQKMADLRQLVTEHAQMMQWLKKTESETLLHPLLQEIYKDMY

mouse PPARγ = target: T6, mouse PPARγ (Mus musculus, UniProt P37238); test: Nuclear receptor specificity transfection assay; assay type: cell-based; conditions: 10 μM paclitaxel
T6 construct: expressed in transfected cells; host or cells: CV-1
T6 sequence (P37238 whole entry): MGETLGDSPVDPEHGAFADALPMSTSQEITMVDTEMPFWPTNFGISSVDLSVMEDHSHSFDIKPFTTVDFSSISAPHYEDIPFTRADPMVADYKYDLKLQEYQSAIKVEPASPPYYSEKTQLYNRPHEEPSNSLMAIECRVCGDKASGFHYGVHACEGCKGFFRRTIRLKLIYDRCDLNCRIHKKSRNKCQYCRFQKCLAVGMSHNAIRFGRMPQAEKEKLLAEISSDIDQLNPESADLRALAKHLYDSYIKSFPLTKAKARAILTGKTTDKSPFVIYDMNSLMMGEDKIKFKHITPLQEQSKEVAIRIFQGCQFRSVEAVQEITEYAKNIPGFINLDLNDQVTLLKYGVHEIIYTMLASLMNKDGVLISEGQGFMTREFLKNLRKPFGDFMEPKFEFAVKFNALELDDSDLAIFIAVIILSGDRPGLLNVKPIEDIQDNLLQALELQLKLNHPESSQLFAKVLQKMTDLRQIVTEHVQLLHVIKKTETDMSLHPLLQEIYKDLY

T1 sequence (Q96RI1 whole entry, species assumed): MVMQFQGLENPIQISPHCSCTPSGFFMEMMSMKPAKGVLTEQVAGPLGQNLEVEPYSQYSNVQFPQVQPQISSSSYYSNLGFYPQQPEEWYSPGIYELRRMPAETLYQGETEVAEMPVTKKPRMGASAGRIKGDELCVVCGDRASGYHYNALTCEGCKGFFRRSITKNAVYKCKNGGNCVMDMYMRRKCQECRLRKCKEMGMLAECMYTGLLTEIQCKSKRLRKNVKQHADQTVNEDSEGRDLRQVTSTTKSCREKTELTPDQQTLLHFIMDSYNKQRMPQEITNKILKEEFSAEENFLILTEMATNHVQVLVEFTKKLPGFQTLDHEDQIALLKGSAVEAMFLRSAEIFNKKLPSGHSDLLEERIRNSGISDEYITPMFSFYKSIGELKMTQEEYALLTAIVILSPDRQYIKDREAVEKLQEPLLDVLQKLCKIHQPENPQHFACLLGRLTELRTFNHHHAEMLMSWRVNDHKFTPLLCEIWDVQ

SMILES: CC(=O)O[C@H]1C(=O)[C@@]2(C)[C@H]([C@H](OC(=O)c3ccccc3)[C@]3(O)C[C@H](OC(=O)[C@H](O)[C@@H](NC(=O)c4ccccc4)c4ccccc4)C(C)=C1C3(C)C)[C@]1(OC(C)=O)CO[C@@H]1C[C@@H]2O [paclitaxel]
- effect on FXR reporter activity (FXR): no effect
- effect on TRβ reporter activity [1]: no effect
- rate of [14C]-paclitaxel efflux versus untreated cells [2]: significantly faster
- effect on RXR reporter activity [3]: no effect
- fecal excretion for which P-glycoprotein is responsible (P-glycoprotein): 85%
- effect on LXRα reporter activity (human LXRα): no effect
- effect on RARα reporter activity (human RARα): no effect
- effect on PPARδ reporter activity (mouse PPARδ): no effect
- effect on PPARγ reporter activity (mouse PPARγ): no effect
